From ChEMBL document CHEMBL1201862, “PubChem BioAssay data set” (2004)
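Method: 48-hour compound exposure of cells in 96-well plates, five concentrations, linear interpolation of endpoints. GI50 is the concentration that inhibits growth by half.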 Calls of active or inactive are those of the source. Cut-off read from the data, not from the text of the source: active = GI50 up to about 1.1 µM and inactive = higher.

Legend:
Assay in all cases: NCI anticancer screen, dose series, 48 h
[1] = system: COLO 205
[2] = system: HCT-15
[3] = system: HOP-62
[4] = system: HOP-92
[5] = system: HT-29
[6] = system: IGROV-1
[7] = system: NCI-H23
[8] = system: NCI-H460
[9] = system: OVCAR-3
[10] = system: SF-268
[11] = system: SF-539
[12] = system: SK-MEL-5
[13] = system: SW-620
[14] = system: U-251
[15] = system: UACC-257
[16] = system: UO-31
[17] = system: XF498
[18] = system: MOLT-4
[19] = system: OVCAR-8
[20] = system: SK-MEL-28

COc1cc(O)c2c(c1)C(=O)c1cc3c(c(O)c1C2=O)C(OC1OC(C)C(O)C(O)C1OC)C(OC)C(C)(O)C3=O (stereo not drawn)
GI50 [1]: 0.76 µM (active) | GI50 [2]: 2.32 µM | GI50 [3]: 3.82 µM (inactive) | GI50 [4]: 0.436 µM (active) | GI50 [5]: 1.17 µM (inactive) | GI50 [6]: 2.52 µM (inactive) | GI50 [7]: 2.06 µM (inactive) | GI50 [8]: 1.53 µM (inactive) | GI50 [9]: 0.439 µM (active) | GI50 [10]: 2.12 µM (inactive) | GI50 [11]: 1.85 µM (inactive) | GI50 [12]: 0.865 µM (active) | GI50 [13]: 1.08 µM (active) | GI50 [14]: 3.39 µM (inactive) | GI50 [15]: 0.723 µM (active) | GI50 [16]: 2.09 µM (inactive) | GI50 [17]: 3.95 µM (inactive)

O=S(=O)(c1ccccc1)C1CC(c2nc3ccccc3[nH]2)=NO1 (stereo not drawn)
GI50 [1]: 37.3 µM (inactive) | GI50 [2]: 51.3 µM | GI50 [3]: > 100 µM (inactive) | GI50 [4]: 80.4 µM (inactive) | GI50 [5]: > 100 µM (inactive) | GI50 [6]: 16.6 µM (inactive) | GI50 [18]: 39.1 µM (inactive) | GI50 [7]: > 100 µM (inactive) | GI50 [8]: 50.1 µM (inactive) | GI50 [9]: 89.9 µM (inactive) | GI50 [19]: > 100 µM (inactive) | GI50 [10]: > 100 µM (inactive) | GI50 [11]: 51.4 µM (inactive) | GI50 [20]: > 100 µM (inactive) | GI50 [12]: 70.3 µM (inactive) | GI50 [13]: 43.8 µM (inactive) | GI50 [14]: > 100 µM (inactive) | GI50 [15]: > 100 µM (inactive) | GI50 [16]: > 100 µM (inactive)

Cc1cc(O)c(C(C)C)cc1SC#N
GI50 [1]: 19.4 µM (inactive) | GI50 [2]: 17.3 µM | GI50 [3]: 21 µM (inactive) | GI50 [4]: 10.7 µM (inactive) | GI50 [6]: 16.9 µM (inactive) | GI50 [18]: 3.15 µM (inactive) | GI50 [7]: 17.2 µM (inactive) | GI50 [8]: 16.4 µM (inactive) | GI50 [9]: 15.5 µM (inactive) | GI50 [19]: 17.7 µM (inactive) | GI50 [10]: 19.3 µM (inactive) | GI50 [11]: 15.6 µM (inactive) | GI50 [20]: 17.4 µM (inactive) | GI50 [12]: 19.6 µM (inactive) | GI50 [13]: 17.3 µM (inactive) | GI50 [14]: 16.9 µM (inactive) | GI50 [15]: 16.6 µM (inactive)

O=C(N/C=C1\C(=O)Oc2ccccc2C1=O)NC1CCCCC1
GI50 [1]: > 100 µM (inactive) | GI50 [2]: 37.3 µM | GI50 [3]: 68.4 µM (inactive) | GI50 [4]: 18.5 µM (inactive) | GI50 [5]: > 100 µM (inactive) | GI50 [6]: 56.5 µM (inactive) | GI50 [18]: 62.7 µM (inactive) | GI50 [7]: 69 µM (inactive) | GI50 [8]: > 100 µM (inactive) | GI50 [19]: > 100 µM (inactive) | GI50 [10]: 41.2 µM (inactive) | GI50 [11]: > 100 µM (inactive) | GI50 [20]: 46.7 µM (inactive) | GI50 [12]: > 100 µM (inactive) | GI50 [13]: 98.4 µM (inactive) | GI50 [15]: 69.7 µM (inactive) | GI50 [16]: 21.3 µM (inactive) | GI50 [17]: 21.4 µM (inactive)

CN1C[C@H]2[C@@H](C1=O)[C@H](c1ccc([N+](=O)[O-])cc1)ON2C
GI50 [1]: > 100 µM (inactive) | GI50 [2]: > 100 µM | GI50 [3]: > 100 µM (inactive) | GI50 [4]: > 100 µM (inactive) | GI50 [5]: > 100 µM (inactive) | GI50 [6]: > 100 µM (inactive) | GI50 [18]: > 100 µM (inactive) | GI50 [7]: > 100 µM (inactive) | GI50 [8]: > 100 µM (inactive) | GI50 [9]: > 100 µM (inactive) | GI50 [19]: > 100 µM (inactive) | GI50 [20]: > 100 µM (inactive) | GI50 [12]: > 100 µM (inactive) | GI50 [13]: > 100 µM (inactive) | GI50 [14]: > 100 µM (inactive) | GI50 [15]: > 100 µM (inactive) | GI50 [16]: > 100 µM (inactive)

CCN1c2ccccc2NC(=S)c2c(-c3ccccc3)n[nH]c21
GI50 [1]: 31.5 µM (inactive) | GI50 [2]: 23 µM | GI50 [4]: 43.8 µM (inactive) | GI50 [5]: 42.7 µM (inactive) | GI50 [6]: 34.1 µM (inactive) | GI50 [18]: 17 µM (inactive) | GI50 [7]: 26.5 µM (inactive) | GI50 [8]: 28.6 µM (inactive) | GI50 [9]: 53.3 µM (inactive) | GI50 [19]: 39.4 µM (inactive) | GI50 [10]: 27.4 µM (inactive) | GI50 [11]: 39.4 µM (inactive) | GI50 [20]: 45.6 µM (inactive) | GI50 [12]: 20.3 µM (inactive) | GI50 [13]: 27 µM (inactive) | GI50 [14]: 20.9 µM (inactive) | GI50 [15]: 48.2 µM (inactive)

O=C(Nc1ccc(Cl)cc1)C(=O)C(C(=O)c1ccccc1-c1ccccc1)C1OC(=O)c2ccccc21 (stereo not drawn)
GI50 [1]: 21.7 µM (inactive) | GI50 [2]: 17.6 µM | GI50 [3]: 26.4 µM (inactive) | GI50 [4]: 27 µM (inactive) | GI50 [5]: 23.1 µM (inactive) | GI50 [6]: 29.1 µM (inactive) | GI50 [18]: 29.4 µM (inactive) | GI50 [7]: 23.1 µM (inactive) | GI50 [8]: 19.4 µM (inactive) | GI50 [19]: 15.5 µM (inactive) | GI50 [10]: 21.3 µM (inactive) | GI50 [11]: 22.5 µM (inactive) | GI50 [20]: 18.4 µM (inactive) | GI50 [12]: 14.5 µM (inactive) | GI50 [13]: 22.4 µM (inactive) | GI50 [14]: 14 µM (inactive) | GI50 [15]: 21.9 µM (inactive) | GI50 [16]: 19.4 µM (inactive) | GI50 [17]: 17.9 µM (inactive)

O=C(O)C1=C(CO)Oc2cc3c(cc2C1c1ccc2c(c1)OCO2)OCO3 (stereo not drawn)
GI50 [1]: > 100 µM (inactive) | GI50 [2]: > 100 µM | GI50 [3]: > 100 µM (inactive) | GI50 [4]: > 100 µM (inactive) | GI50 [5]: > 100 µM (inactive) | GI50 [6]: > 100 µM (inactive) | GI50 [18]: > 100 µM (inactive) | GI50 [7]: > 100 µM (inactive) | GI50 [8]: > 100 µM (inactive) | GI50 [9]: > 100 µM (inactive) | GI50 [19]: > 100 µM (inactive) | GI50 [11]: > 100 µM (inactive) | GI50 [20]: > 100 µM (inactive) | GI50 [12]: > 100 µM (inactive) | GI50 [13]: > 100 µM (inactive) | GI50 [14]: > 100 µM (inactive) | GI50 [15]: > 100 µM (inactive) | GI50 [16]: > 100 µM (inactive) | GI50 [17]: > 100 µM (inactive)
